Measured values published in patent publication US8198273B2, “Compounds and methods for kinase modulation, and indications therefor” (Plexxikon Inc., priority 2009, dated 2012).

Tests used:
[1] = tested on: SKMEL2 melanoma cells (Ras mutation); experiment: SKMEL2 cell growth inhibition (ATPlite); assay type: cell-based; conditions: Homo sapiens, SK-MEL-2, 72 h; SKMEL2, 3 days incubation
Summary of the method: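 SKMEL2 cells seeded at 2,000 per well overnight, then exposed to an 8-point 1:3 compound titration (top 10 μM final) for 3 days at 37 °C. ATPlite luminescence used as a measure of cell number to derive IC50.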

[2] = tested on: A375 melanoma cells (B-Raf V600E); experiment: A375 cell growth inhibition (ATPlite); assay type: cell-based; conditions: Homo sapiens, A-375, 72 h; A375, 3 days incubation
Summary of the method: (§1)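 Cells plated overnight, then exposed 3 days at 37° C to 8-point 1:3 compound dilutions topping at 10 μM final. Viability read as ATPlite luminescence, proportional to cell number; IC50 from luminescence versus concentration.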

CYP3A4(BQ) = CYP3A4(BQ) (Homo sapiens, UniProt P08684); experiment: CYP3A4(BQ) inhibition (fluorescent substrate); assay type: in vitro ADME; conditions: read-out: Cyp IC50 3A4(BQ)
Sequence of CYP3A4(BQ) (P08684 whole entry): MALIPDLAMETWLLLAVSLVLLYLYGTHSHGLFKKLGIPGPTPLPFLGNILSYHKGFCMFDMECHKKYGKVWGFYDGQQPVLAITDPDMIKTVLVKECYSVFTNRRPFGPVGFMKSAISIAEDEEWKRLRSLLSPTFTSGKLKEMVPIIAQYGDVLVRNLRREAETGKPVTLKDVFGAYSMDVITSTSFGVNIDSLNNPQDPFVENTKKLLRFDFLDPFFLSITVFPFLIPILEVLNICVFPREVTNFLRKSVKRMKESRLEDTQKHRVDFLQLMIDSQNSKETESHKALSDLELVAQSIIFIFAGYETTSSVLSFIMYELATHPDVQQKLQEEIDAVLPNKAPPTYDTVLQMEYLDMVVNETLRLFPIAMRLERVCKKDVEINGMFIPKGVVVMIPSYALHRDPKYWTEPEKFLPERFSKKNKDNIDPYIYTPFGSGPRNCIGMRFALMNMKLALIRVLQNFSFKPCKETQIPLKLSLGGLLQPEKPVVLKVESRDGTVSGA
Summary of the method: (§2)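 Inhibition was followed as loss of fluorescent metabolite from a known substrate, with compound in co-factor mix as a 10-point 1:1 serial dilution (100 mM DMSO stock).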

CYP2C9 = CYP2C9 (Homo sapiens, UniProt P11712); experiment: CYP2C9 inhibition (fluorescent substrate); assay type: in vitro ADME; conditions: CYP2C9, MFC substrate; read-out: Cyp IC50 2C9
Sequence of CYP2C9 (P11712 whole entry): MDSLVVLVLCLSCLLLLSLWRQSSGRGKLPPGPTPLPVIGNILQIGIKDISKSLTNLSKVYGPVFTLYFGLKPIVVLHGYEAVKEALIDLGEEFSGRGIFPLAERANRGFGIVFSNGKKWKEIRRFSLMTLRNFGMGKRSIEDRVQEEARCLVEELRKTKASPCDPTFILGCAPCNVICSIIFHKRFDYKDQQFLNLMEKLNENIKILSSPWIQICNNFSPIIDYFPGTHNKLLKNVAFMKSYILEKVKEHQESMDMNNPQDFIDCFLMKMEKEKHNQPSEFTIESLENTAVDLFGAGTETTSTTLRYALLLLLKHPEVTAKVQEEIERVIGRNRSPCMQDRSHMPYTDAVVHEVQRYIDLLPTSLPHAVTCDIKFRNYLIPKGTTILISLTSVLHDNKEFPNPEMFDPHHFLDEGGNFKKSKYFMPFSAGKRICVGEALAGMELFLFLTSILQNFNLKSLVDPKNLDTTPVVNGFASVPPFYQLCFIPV
Experimental: CYP (Cytochrome P450) enzymes are the major drug metabolizing enzymes present in the liver. The inhibition of CYP enzyme activity (IC50) for each of CYP1A2, CYP2C19, CYP2C9, CYP2D6, CYP3A4(BFC) and CYP3A4(BQ) is determined for compounds, where inhibition of metabolism of a known substrate leads to a decrease in the fluorescence of the metabolized product. The fluorescence of the product is monitored as a function of compound concentration.
Compounds are dissolved in dimethyl sulfoxide to a concentration of 100 mM. These are diluted 1 μL into 82 μL of acetonitrile. […] These are then serially diluted 1:1 (160 μL to 160 μL co-factor mix) for a total of 10 points. A 10 μL aliquot of this final mixture is dispensed into 384 well assay plates and incubated for 10 minutes at 37° C. […] Assay plates are incubated at 37° C. […] The signal versus compound concentration is used to determine the IC50. The enzymes and substrates for this assay are obtained from BD Biosciences.

[3] = tested on: SW620 colon adenocarcinoma cells (wild-type B-RAF); experiment: SW620 cell growth inhibition (ATPlite); assay type: cell-based; conditions: Homo sapiens, SW-620, 72 h; SW620, 3 days incubation
Summary of the method: as §1

CYP3A4(BFC) = CYP3A4(BFC) (Homo sapiens, UniProt P08684); experiment: CYP3A4(BFC) inhibition (fluorescent substrate); assay type: in vitro ADME; conditions: read-out: Cyp IC50 3A4(BFC)
Sequence of CYP3A4(BFC) (P08684 whole entry): as the sequence (P08684 whole entry) above
Summary of the method: as §2

Structure (SMILES)	IC50 [1] [µM]	IC50 [2] [µM]	IC50 (CYP3A4(BQ)) [µM]	IC50 (CYP2C9) [µM]	IC50 [3] [µM]	IC50 (CYP3A4(BFC)) [µM]
CCCS(=O)(=O)Nc1ccc(F)c(C(=O)c2c[nH]c3ncc(-c4ccc(NC(C)=O)nc4)cc23)c1F [P-2193, N-(5-{3-[2,6-Difluoro-3-(propane-1-sulfonylamino)-benzoyl]-1H-pyrrolo[2,3-b]pyridin-5-yl}-pyridin-2-yl)-acetamide]	> 10	< 1	> 10	> 10	> 10	5 to 10
CCCS(=O)(=O)Nc1ccc(F)c(C(=O)c2c[nH]c3ncc(-c4cn[nH]c4)cc23)c1F [P-2174, Propane-1-sulfonic acid {2,4-difluoro-3-[5-(1H-pyrazol-4-yl)-1H-pyrrolo[2,3-b]pyridine-3-carbonyl]-phenyl}-amide]	< 10	< 1	< 5	< 5	> 10	> 10
CCCS(=O)(=O)Nc1ccc(F)c(C(=O)c2c[nH]c3ncc(-c4ccc(C)nc4)cc23)c1F [P-2213, Propane-1-sulfonic acid {2,4-difluoro-3-[5-(6-methyl-pyridin-3-yl)-1H-pyrrolo[2,3-b]pyridine-3-carbonyl]-phenyl}-amide]	> 10	< 1	> 10	< 5	< 20	> 10
N#Cc1cnc2[nH]cc(C(=O)c3cccc(NS(=O)(=O)c4cccc(F)c4)c3F)c2c1 [P-2053, N-[3-(5-Cyano-1H-pyrrolo[2,3-b]pyridine-3-carbonyl)-2-fluoro-phenyl]-3-fluoro-benzenesulfonamide]	> 10	< 5	> 10	5 to 10	> 10	> 10
COc1ccnc2[nH]cc(C(=O)c3c(F)ccc(NS(=O)(=O)c4cc(F)ccc4F)c3F)c12 [P-2022, N-[2,4-Difluoro-3-(4-methoxy-1H-pyrrolo[2,3-b]pyridine-3-carbonyl)-phenyl]-2,5-difluoro-benzenesulfonamide]	> 10	< 5	–	5 to 10	> 10	–
CCCS(=O)(=O)Nc1ccc(F)c(C(=O)c2c[nH]c3ncc(-c4cnc(N5CCCC5)nc4)cc23)c1F [P-2219, Propane-1-sulfonic acid {2,4-difluoro-3-[5-(2-pyrrolidin-1-yl-pyrimidin-5-yl)-1H-pyrrolo[2,3-b]pyridine-3-carbonyl]-phenyl}-amide]	> 10	< 0.1	–	> 10	> 10	–
CCCS(=O)(=O)Nc1ccc(F)c(C(=O)c2c[nH]c3ncc(-c4cccc(S(C)(=O)=O)c4)cc23)c1F [P-2228, Propane-1-sulfonic acid {2,4-difluoro-3-[5-(3-methanesulfonyl-phenyl)-1H-pyrrolo[2,3-b]pyridine-3-carbonyl]-phenyl}-amide]	–	< 1	> 10	> 10	> 10	> 10
CCCS(=O)(=O)Nc1ccc(F)c(C(=O)c2c[nH]c3ncc(-c4ccc(OCCN5CCCC5)nc4)cc23)c1F [P-2233, Propane-1-sulfonic acid (2,4-difluoro-3-{5-[6-(2-pyrrolidin-1-yl-ethoxy)-pyridin-3-yl]-1H-pyrrolo[2,3-b]pyridine-3-carbonyl}-phenyl)-amide]	–	< 0.1	> 10	> 10	> 10	> 10
COc1ncc(-c2cnc3[nH]cc(C(=O)c4c(F)ccc(NS(=O)(=O)c5ccccc5F)c4F)c3c2)cn1 [P-2041, N-{2,4-Difluoro-3-[5-(2-methoxy-pyrimidin-5-yl)-1H-pyrrolo[2,3-b]pyridine-3-carbonyl]-phenyl}-2-fluoro-benzenesulfonamide]	–	< 1	> 10	> 10	> 10	> 10
CCCS(=O)(=O)Nc1ccc(F)c(C(=O)c2c[nH]c3ncc(-c4ccc(OCCCN5CCOCC5)nc4)cc23)c1F [P-2236, Propane-1-sulfonic acid (2,4-difluoro-3-{5-[6-(3-morpholin-4-yl-propoxy)-pyridin-3-yl]-1H-pyrrolo[2,3-b]pyridine-3-carbonyl}-phenyl)-amide]	–	< 0.1	5 to 10	< 5	> 10	< 5
N#Cc1cnc2[nH]cc(C(=O)c3cccc(NS(=O)(=O)c4ccccc4)c3F)c2c1 [P-2056, N-[3-(5-Cyano-1H-pyrrolo[2,3-b]pyridine-3-carbonyl)-2-fluoro-phenyl]-benzenesulfonamide]	> 10	< 5	> 10	–	< 5	> 10
COc1ncc(-c2cnc3[nH]cc(C(=O)c4c(F)ccc(NS(=O)(=O)c5cc(F)ccc5F)c4F)c3c2)cn1 [P-2042, N-{2,4-Difluoro-3-[5-(2-methoxy-pyrimidin-5-yl)-1H-pyrrolo[2,3-b]pyridine-3-carbonyl]-phenyl}-2,5-difluoro-benzenesulfonamide]	–	< 1	> 10	5 to 10	> 10	> 10
CCCS(=O)(=O)Nc1ccc(F)c(C(=O)c2c[nH]c3ncc(-c4ccc(OCCN5CCOCC5)nc4)cc23)c1F [P-2232, Propane-1-sulfonic acid (2,4-difluoro-3-{5-[6-(2-morpholin-4-yl-ethoxy)-pyridin-3-yl]-1H-pyrrolo[2,3-b]pyridine-3-carbonyl}-phenyl)-amide]	–	< 0.1	> 10	5 to 10	> 10	> 10
C#Cc1cnc2[nH]cc(C(=O)c3c(F)ccc(NS(=O)(=O)CCC)c3F)c2c1 [P-2260, Propane-1-sulfonic acid [3-(5-ethynyl-1H-pyrrolo[2,3-b]pyridine-3-carbonyl)-2,4-difluoro-phenyl]-amide]	–	< 1	5 to 10	5 to 10	> 10	< 5
COc1ncc(-c2cnc3[nH]cc(C(=O)c4c(F)ccc(NS(=O)(=O)c5cccc(F)c5)c4F)c3c2)cn1 [P-2045, N-{2,4-Difluoro-3-[5-(2-methoxy-pyrimidin-5-yl)-1H-pyrrolo[2,3-b]pyridine-3-carbonyl]-phenyl}-3-fluoro-benzenesulfonamide]	–	< 5	> 10	> 10	> 10	> 10
CCCS(=O)(=O)Nc1ccc(F)c(C(=O)c2c[nH]c3ncc(-c4ccc(SC)nc4)cc23)c1F [P-2187, Propane-1-sulfonic acid {2,4-difluoro-3-[5-(6-methylsulfanyl-pyridin-3-yl)-1H-pyrrolo[2,3-b]pyridine-3-carbonyl]-phenyl}-amide]	–	< 1	> 10	> 10	> 10	> 10
CCCS(=O)(=O)Nc1ccc(F)c(C(=O)c2c[nH]c3ncc(-c4ccc(OCCCN5CCCC5)nc4)cc23)c1F [P-2235, Propane-1-sulfonic acid (2,4-difluoro-3-{5-[6-(3-pyrrolidin-1-yl-propoxy)-pyridin-3-yl]-1H-pyrrolo[2,3-b]pyridine-3-carbonyl}-phenyl)-amide]	–	< 0.1	> 10	> 10	> 10	> 10
CCCS(=O)(=O)Nc1ccc(F)c(C(=O)c2c[nH]c3ncc(-c4ccc(S(=O)(=O)NC5CC5)cc4)cc23)c1F [P-2168, N-Cyclopropyl-4-{3-[2,6-difluoro-3-(propane-1-sulfonylamino)-benzoyl]-1H-pyrrolo[2,3-b]pyridin-5-yl}-benzenesulfonamide]	< 5	< 1	–	< 5	< 5	–
CCCS(=O)(=O)Nc1ccc(F)c(C(=O)c2c[nH]c3ncc(-c4cnn(Cc5ccccc5)c4)cc23)c1F [P-2190, Propane-1-sulfonic acid {3-[5-(1-benzyl-1H-pyrazol-4-yl)-1H-pyrrolo[2,3-b]pyridine-3-carbonyl]-2,4-difluoro-phenyl}-amide]	–	< 1	> 10	< 5	< 10	> 10
CCCS(=O)(=O)Nc1ccc(F)c(C(=O)c2c[nH]c3ncc(-c4ccnc(F)c4)cc23)c1F [P-2192, Propane-1-sulfonic acid {2,4-difluoro-3-[5-(2-fluoro-pyridin-4-yl)-1H-pyrrolo[2,3-b]pyridine-3-carbonyl]-phenyl}-amide]	–	< 1	> 10	5 to 10	> 10	> 10
